How the values were obtained:
[1] = target: T1, PI 3-kinase beta (Homo sapiens, UniProt P42338); assay: Kinase Glo Luminescent Kinase Assay (Kglo), assay B; format: biochemical; conditions: read-out: Assay B PI3Kβ IC50
Target sequence in this assay (P42338 whole entry): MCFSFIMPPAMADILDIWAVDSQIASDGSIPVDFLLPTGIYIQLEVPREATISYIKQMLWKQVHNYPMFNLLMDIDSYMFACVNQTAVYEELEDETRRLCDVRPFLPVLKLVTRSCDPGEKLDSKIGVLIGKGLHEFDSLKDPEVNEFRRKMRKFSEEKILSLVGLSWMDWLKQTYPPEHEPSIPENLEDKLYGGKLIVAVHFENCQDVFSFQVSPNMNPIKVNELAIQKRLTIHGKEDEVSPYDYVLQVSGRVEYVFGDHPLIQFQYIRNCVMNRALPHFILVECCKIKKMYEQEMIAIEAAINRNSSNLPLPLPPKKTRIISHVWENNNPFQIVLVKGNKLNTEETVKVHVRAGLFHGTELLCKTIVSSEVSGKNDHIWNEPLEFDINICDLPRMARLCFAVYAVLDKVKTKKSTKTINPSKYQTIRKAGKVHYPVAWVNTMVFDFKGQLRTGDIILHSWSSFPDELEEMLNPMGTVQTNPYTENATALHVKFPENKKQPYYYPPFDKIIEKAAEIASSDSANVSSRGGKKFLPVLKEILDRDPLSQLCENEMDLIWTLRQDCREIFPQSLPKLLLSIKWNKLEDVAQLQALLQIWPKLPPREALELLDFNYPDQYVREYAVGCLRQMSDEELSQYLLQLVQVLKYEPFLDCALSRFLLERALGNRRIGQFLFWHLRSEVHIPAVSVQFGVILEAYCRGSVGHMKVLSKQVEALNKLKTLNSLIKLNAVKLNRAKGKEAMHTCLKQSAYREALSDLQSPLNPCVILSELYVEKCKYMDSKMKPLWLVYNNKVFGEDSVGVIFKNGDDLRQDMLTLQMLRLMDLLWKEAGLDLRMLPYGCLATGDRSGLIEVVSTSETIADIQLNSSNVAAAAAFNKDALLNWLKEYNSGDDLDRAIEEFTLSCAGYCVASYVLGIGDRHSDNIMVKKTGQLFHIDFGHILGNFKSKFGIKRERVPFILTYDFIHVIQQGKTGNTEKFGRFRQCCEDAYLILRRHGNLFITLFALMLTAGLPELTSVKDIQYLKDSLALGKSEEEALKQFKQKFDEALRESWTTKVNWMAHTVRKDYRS
Target sequence in this assay (P27986 461-568 partner): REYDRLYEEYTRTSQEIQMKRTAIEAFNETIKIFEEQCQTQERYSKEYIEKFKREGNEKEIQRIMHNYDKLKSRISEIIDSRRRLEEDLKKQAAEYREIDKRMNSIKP

[2] = target: Vps34 (Homo sapiens, UniProt Q8NEB9); assay: Kinase Glo Luminescent Kinase Assay (Kglo), assay C; format: biochemical; conditions: read-out: Assay C VPS34 IC50
[3] = target: PI 4-kinase beta (Homo sapiens, UniProt Q9UBF8); assay: Kinase Glo Luminescent Kinase Assay (Kglo), assay D; format: biochemical; conditions: read-out: Assay D PI4Kβ IC50
Sequence of PI 4-kinase beta (Q9UBF8 whole entry): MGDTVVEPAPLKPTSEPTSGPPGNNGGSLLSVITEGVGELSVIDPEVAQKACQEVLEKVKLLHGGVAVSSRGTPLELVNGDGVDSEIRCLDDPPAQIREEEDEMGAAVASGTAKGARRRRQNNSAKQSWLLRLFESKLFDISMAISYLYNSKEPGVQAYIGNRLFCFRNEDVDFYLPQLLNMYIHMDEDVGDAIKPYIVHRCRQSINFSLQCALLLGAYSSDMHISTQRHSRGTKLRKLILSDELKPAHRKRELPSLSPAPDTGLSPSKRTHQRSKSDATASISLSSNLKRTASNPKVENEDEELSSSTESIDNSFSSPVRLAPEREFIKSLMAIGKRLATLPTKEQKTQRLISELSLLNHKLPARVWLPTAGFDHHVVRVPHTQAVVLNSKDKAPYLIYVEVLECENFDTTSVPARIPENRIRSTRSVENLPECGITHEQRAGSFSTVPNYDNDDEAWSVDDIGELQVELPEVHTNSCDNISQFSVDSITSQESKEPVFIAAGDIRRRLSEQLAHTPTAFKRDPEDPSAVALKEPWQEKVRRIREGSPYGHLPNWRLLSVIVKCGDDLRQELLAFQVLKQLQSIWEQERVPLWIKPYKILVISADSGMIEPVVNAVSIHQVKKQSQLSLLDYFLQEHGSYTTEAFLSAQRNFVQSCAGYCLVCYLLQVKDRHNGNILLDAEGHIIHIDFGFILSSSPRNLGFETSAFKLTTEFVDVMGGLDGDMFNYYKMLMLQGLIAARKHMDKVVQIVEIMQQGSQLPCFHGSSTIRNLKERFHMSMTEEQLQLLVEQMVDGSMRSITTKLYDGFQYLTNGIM

[4] = target: mTOR (Homo sapiens, UniProt P42345); assay: Lanthascreen kinase binding assay, assay G; conditions: read-out: Assay G mTOR IC50
Description: Lanthascreen™ Kinase Binding Assay for mTOR (G)
Binding of an inhibitor to the kinase competes for binding with the tracer, resulting in a loss of FRET.
50 nL of compound dilutions were dispensed onto white 384-well small volume polystyrene plate.

[5] = target: T1, PI 3-kinase beta; assay: Cellular assay I1, p-Akt (S473) in Rat-1 cells, Surefire format; format: cell-based; conditions: non-asterisked data: version I1 (Surefire format), Rat-1 cells; read-out: Assay I PI3Kβ IC50
Target sequence in this assay (P42338 whole entry): as the sequence (P42338 whole entry) above
Target sequence in this assay (Q63787 whole entry partner): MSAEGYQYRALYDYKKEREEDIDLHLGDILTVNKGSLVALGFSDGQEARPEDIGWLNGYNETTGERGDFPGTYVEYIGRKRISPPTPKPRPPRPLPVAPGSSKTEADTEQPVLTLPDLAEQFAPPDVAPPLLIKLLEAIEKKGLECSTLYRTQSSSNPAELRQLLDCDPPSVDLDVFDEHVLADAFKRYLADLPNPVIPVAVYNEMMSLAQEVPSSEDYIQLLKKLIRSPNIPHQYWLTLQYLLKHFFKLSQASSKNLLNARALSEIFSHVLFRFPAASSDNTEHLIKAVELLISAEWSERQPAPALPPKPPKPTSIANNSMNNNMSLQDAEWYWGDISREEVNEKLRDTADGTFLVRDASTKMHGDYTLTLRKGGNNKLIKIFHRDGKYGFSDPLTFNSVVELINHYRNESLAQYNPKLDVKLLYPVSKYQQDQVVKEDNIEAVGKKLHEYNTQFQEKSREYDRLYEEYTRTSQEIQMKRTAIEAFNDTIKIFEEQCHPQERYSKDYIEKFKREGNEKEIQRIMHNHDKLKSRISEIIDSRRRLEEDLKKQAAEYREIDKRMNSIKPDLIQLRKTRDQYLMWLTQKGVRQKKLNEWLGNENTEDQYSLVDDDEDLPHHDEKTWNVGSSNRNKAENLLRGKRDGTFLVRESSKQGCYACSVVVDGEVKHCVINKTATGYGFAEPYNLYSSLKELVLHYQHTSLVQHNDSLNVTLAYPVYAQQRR

[6] = target: T2, PI 3-kinase delta (Homo sapiens, UniProt O00329); assay: Cellular assay J1, p-Akt (S473) in Rat-1 cells, Surefire format; format: cell-based; conditions: non-asterisked data: version J1 (Surefire format), Rat-1 cells; read-out: Assay J PI3Kδ IC50
[7] = target: T2, PI 3-kinase delta; assay: TR-FRET Adapta assay, assay F
[8] = target: T3, PI 3-kinase alpha (Homo sapiens, UniProt P42336); assay: Kinase Glo Luminescent Kinase Assay (Kglo), assay A; format: biochemical; conditions: read-out: Assay A PI3Kα IC50
[9] = target: PI 3-kinase gamma (Homo sapiens, UniProt P48736); assay: TR-FRET Adapta assay, assay E; format: biochemical; conditions: for IC50: read-out: Assay E PI3Kγ IC50
Sequence of PI 3-kinase gamma (P48736 whole entry): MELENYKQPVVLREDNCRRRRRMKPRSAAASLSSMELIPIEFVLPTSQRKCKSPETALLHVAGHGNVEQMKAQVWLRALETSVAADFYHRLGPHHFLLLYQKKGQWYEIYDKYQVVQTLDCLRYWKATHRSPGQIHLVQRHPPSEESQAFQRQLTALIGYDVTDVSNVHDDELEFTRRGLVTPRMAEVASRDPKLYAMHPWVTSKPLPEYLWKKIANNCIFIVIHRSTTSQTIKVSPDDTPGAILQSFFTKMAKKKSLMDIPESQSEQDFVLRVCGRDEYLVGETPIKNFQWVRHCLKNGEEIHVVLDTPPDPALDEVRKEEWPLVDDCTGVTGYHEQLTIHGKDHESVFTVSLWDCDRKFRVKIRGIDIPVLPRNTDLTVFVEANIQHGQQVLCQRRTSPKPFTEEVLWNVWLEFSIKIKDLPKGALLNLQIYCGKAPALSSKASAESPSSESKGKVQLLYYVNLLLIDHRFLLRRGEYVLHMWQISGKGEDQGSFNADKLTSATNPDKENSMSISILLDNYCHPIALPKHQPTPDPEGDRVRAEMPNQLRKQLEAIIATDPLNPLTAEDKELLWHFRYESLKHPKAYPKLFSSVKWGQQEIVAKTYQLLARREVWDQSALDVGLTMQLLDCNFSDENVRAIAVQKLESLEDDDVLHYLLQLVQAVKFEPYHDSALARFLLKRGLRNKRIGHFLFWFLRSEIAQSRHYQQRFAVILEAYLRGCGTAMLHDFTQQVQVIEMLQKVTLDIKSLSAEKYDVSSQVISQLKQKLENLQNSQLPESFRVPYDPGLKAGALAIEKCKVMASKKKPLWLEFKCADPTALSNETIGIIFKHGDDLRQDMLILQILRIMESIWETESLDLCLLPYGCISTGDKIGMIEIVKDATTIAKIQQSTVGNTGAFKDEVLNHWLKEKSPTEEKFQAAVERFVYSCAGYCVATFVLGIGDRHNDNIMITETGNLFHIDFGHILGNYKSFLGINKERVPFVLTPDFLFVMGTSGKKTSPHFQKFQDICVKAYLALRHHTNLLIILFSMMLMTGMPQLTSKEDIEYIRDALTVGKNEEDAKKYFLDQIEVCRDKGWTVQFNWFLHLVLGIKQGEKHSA

[10] = target: T3, PI 3-kinase alpha; assay: Cellular assay H1, p-Akt (S473) in Rat-1 cells, Surefire format; format: cell-based; conditions: non-asterisked data: version H1 (Surefire format), Rat-1 cells; read-out: Assay H PI3Kα IC50
[11] = Microsomal clearance assay (M); conditions: intrinsic clearance in rat liver microsomes
Description: The experiments were performed in 96-well glass plates at 37° C. on an automated Tecan EVO platform. Test compounds at a concentration of 10 mM in pure DMSO were diluted 1:1000 in water to 10 μM. […] Reactions were initiated by the addition of 150 μL of a cofactor solution containing 2 mM NADPH.

Sequence of Vps34 (Q8NEB9 whole entry, species assumed): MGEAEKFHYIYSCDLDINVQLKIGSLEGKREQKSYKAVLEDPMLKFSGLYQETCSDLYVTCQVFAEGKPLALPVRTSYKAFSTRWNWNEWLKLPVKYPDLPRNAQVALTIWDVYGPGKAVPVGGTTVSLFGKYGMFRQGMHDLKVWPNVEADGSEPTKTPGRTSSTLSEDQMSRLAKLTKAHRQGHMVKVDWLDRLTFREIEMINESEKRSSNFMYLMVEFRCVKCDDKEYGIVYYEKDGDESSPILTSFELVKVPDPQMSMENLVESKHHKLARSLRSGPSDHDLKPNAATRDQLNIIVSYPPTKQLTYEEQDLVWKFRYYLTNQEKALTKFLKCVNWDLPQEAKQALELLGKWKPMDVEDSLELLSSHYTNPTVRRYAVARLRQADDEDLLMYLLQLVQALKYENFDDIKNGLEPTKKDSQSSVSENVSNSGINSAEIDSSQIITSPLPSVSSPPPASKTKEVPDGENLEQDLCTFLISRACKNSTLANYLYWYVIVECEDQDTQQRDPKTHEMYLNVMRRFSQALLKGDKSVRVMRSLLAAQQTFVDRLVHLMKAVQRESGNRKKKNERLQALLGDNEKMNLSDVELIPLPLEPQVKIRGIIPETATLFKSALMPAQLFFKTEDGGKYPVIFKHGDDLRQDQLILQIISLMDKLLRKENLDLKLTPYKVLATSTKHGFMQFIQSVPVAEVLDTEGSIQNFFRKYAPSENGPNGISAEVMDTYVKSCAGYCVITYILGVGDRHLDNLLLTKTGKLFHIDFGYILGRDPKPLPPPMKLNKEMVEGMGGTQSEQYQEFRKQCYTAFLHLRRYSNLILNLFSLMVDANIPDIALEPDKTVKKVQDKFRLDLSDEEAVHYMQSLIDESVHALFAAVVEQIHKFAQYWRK

SMILES | IC50 [1] [nM] | IC50 [2] [nM] | IC50 [3] [nM] | IC50 [4] [nM] | IC50 [5] [nM] | IC50 [6] [nM] | IC50 ([7]; read-out: Assay F PI3Kδ IC50) [nM] | IC50 [8] [nM] | IC50 [9] [nM] | Assay M RLM CI(int) [11] [µL/min/mg] | activity in assay E ([9]; TR-FRET Adapta, PI 3-kinase gamma) | IC50 [10] [nM] | IC50 [7] [nM]
Cc1ccc(S(=O)(=O)NCC(C)(C)O)cc1-c1cnc(N)c(-n2cncn2)n1 [Example 6, 3-(5-Amino-6-(1H-1,2,4-triazol-1-yl)pyrazin-2-yl)-N-(2-hydroxy-2-methylpropyl)-4-methylbenzenesulfonamide] | 2310 | > 9400 | 7120 | 9010 | 7280 |  |  |  |  |  |  |  | 
Cc1ncc(-c2nc(-c3cc(S(=O)(=O)N[C@H]4CC[C@H](O)CC4)ccc3C)cnc2N)s1 [Example 14, Trans-3-(5-Amino-6-(2-methylthiazol-5-yl)pyrazin-2-yl)-N-(4-hydroxycyclohexyl)-4-methylbenzenesulfonamide] | 620 | 420 | 1570 | 880 | 1790 | 310 | 40 |  |  |  |  |  | 
Cc1ncc(-c2nc(-c3cc(S(=O)(=O)NCCCO)ccc3C)cnc2N)s1 [Example 10, 3-(5-Amino-6-(2-methylthiazol-5-yl)pyrazin-2-yl)-N-(3-hydroxypropyl)-4-methylbenzenesulfonamide] | 890 | 210 | 1890 | 1880 | 6310 | 600 | 60 |  |  |  |  |  | 
Cc1ccc(S(=O)(=O)NC2CC3(CC(O)C3)C2)cc1-c1cnc(N)c(-c2cn(C)nc2C)n1 (centres unmarked) [Example 74, 3-(5-Amino-6-(1,3-dimethyl-1H-pyrazol-4-yl)pyrazin-2-yl)-N-(6-hydroxyspiro[3.3]heptan-2-yl)-4-methylbenzenesulfonamide] | 830 | > 10000 |  | 3500 | > 10000 | 6860 | 380 |  | 41 | 30 |  |  | 
Cc1ccc(S(=O)(=O)NC[C@@H]2COCCN2C)cc1-c1cnc(N)c(-c2cn(C)nc2C)n1 (single isomer, unassigned) [Example 128.3a, (R)-3-(5-Amino-6-(1,3-dimethyl-1H-pyrazol-4-yl)pyrazin-2-yl)-4-methyl-N-((4-methylmorpholin-3-yl)methyl)benzenesulfonamide or (S)-3-(5-Amino-6-(1,3-dimethyl-1H-pyrazol-4-yl)pyrazin-2-yl)-4-methyl-N-((4-methylmorpholin-3-yl)methyl)benzenesulfonamide] |  | > 10000 | > 10000 |  |  | 2100 |  |  |  |  |  | 5150 | 
Cc1ccc(S(=O)(=O)NCC(C)(C)O)cc1-c1cnc(N)c(-c2cnn(C)n2)n1 [Example 18, 3-[5-Amino-6-(2-methyl-2H-[1,2,3]triazol-4-yl)-pyrazin-2-yl]-N-(2-hydroxy-2-methyl-propyl)-4-methyl-benzenesulfonamide] | 2800 | > 10000 | 8600 | 5550 | 2600 |  |  |  |  |  |  |  | 
Cc1ccc(S(=O)(=O)NCC(C)(C)O)cc1-c1cnc(N)c(-c2nn(C)nc2C)n1 [Example 19, 3-[5-Amino-6-(2,5-dimethyl-2H-[1,2,3]triazol-4-yl)-pyrazin-2-yl]-N-(2-hydroxy-2-methyl-propyl)-4-methyl-benzenesulfonamide] | 140 |  | 3850 | 420 | 280 | 70 | 20 |  |  |  |  |  | 
Cc1ccc(S(=O)(=O)NCC2COCCN2C)cc1-c1cnc(N)c(-c2cn(C)nc2C)n1 (single isomer, unassigned) [Example 128.3b, (R)-3-(5-Amino-6-(1,3-dimethyl-1H-pyrazol-4-yl)pyrazin-2-yl)-4-methyl-N-((4-methylmorpholin-3-yl)methyl)benzenesulfonamide or (S)-3-(5-Amino-6-(1,3-dimethyl-1H-pyrazol-4-yl)pyrazin-2-yl)-4-methyl-N-((4-methylmorpholin-3-yl)methyl)benzenesulfonamide] |  | > 10000 | 4600 |  |  | 3820 |  | 370 | 55 |  |  | 4970 | 540
Cc1ncc(-c2nc(-c3cc(S(=O)(=O)NCC(C)(C)O)ccc3C)cnc2N)s1 [Example 7, 3-(5-Amino-6-(2-methylthiazol-5-yl)pyrazin-2-yl)-N-(2-hydroxy-2-methylpropyl)-4-methylbenzenesulfonamide] | 990 | 390 | 1950 | 920 | 3460 |  |  |  |  |  |  |  | 

Further lines, with some results ahead:

IC50 [1] [nM] | IC50 [2] [nM] | IC50 [3] [nM] | IC50 [4] [nM] | IC50 [5] [nM] | IC50 [6] [nM] | IC50 ([7]; read-out: Assay F PI3Kδ IC50) [nM] | IC50 [8] [nM] | IC50 [9] [nM] | Assay M RLM CI(int) [11] [µL/min/mg] | activity in assay E ([9]; TR-FRET Adapta, PI 3-kinase gamma) | SMILES | IC50 [10] [nM] | IC50 [7] [nM]
920 | 570 | 2640 | 590 | 9080 | 470 | 70 |  |  |  |  | Cc1ncc(-c2nc(-c3cc(S(=O)(=O)NCCC(C)(C)O)ccc3C)cnc2N)s1 [Example 119.29] |  | 
9600 | > 10000 | > 10000 |  | > 10000 | > 10000 | 2200 | 2300 | 370 |  |  | Cc1ccc(S(=O)(=O)NCC2CN(C)CCO2)cc1-c1cnc(N)c(-c2cn(C)nc2C)n1 (centres unmarked) [Example 128.5, 3-(5-Amino-6-(1,3-dimethyl-1H-pyrazol-4-yl)pyrazin-2-yl)-4-methyl-N-((4-methylmorpholin-2-yl)methyl)benzenesulfonamide] | > 10000 | 
 |  |  |  | > 10000 | > 10000 |  |  |  |  | not shown any activity | Cc1ccc(S(=O)(=O)NCCC(C)(C)O)cc1-c1cnc(N)c(-c2cccnc2OC(C)C)n1 [Reference example 119.12, 3-(5-amino-6-(2-isopropoxypyridin-3-yl)pyrazin-2-yl)-N-(3-hydroxy-3-methylbutyl)-4-methylbenzenesulfonamide] | > 10000 | 
940 | > 10000 | > 10000 | > 10000 |  |  | 2000 | 2100 | 78 | 19 |  | Cc1nnc(-c2nc(-c3cc(S(=O)(=O)NCC(C)(C)O)ccc3C)cnc2N)o1 [Example 90, 3-(5-Amino-6-(5-methyl-1,3,4-oxadiazol-2-yl)pyrazin-2-yl)-N-(2-hydroxy-2-methylpropyl)-4-methylbenzenesulfonamide] |  | 
120 | 640 | 3740 | 620 | 2670 | 1240 | 30 |  |  |  |  | Cc1ncc(-c2nc(-c3cc(S(=O)(=O)NC4CCC(F)(F)CC4)ccc3C)cnc2N)s1 [Example 55, 3-(5-Amino-6-(2-methylthiazol-5-yl)pyrazin-2-yl)-N-(4,4-difluorocyclohexyl)-4-methylbenzenesulfonamide] |  | 
5300 | > 10000 | 3000 | > 10000 |  |  | 3200 | 1500 | 180 | 641 |  | Cc1ccc(S(=O)(=O)N2CCC(F)CC2)cc1-c1cnc(N)c(-n2cncn2)n1 [Example 127.34] |  | 
4000 | > 9100 | > 9100 | > 9100 |  |  | 2300 | 1600 | 320 | 13 |  | Cc1cc(-c2nc(-c3cc(S(=O)(=O)N4CCC(N)CC4)ccc3C)cnc2N)ccn1 [Example 129.41, 5-(5-(4-aminopiperidin-1-ylsulfonyl)-2-methylphenyl)-3-(2-methylpyridin-4-yl)pyrazin-2-amine] |  | 
7500 | > 9100 | > 9100 | > 9100 |  |  |  | 730 | 110 | >924 |  | Cc1cc(-c2nc(-c3cc(S(=O)(=O)N[C@@H]4CCC[C@H]4N)ccc3C)cnc2N)ccn1 [Example 129.39, 3-(5-amino-6-(2-methylpyridin-4-yl)pyrazin-2-yl)-N-((1R,2R)-2-aminocyclopentyl)-4-methylbenzenesulfonamide] |  | 910
270 | 320 | 1570 | 1840 | 3400 | 1220 | 30 |  |  |  |  | Cc1ncc(-c2nc(-c3cc(S(=O)(=O)N[C@H]4CC[C@@H](O)CC4)ccc3C)cnc2N)s1 [Example 87, 3-(5-Amino-6-(2-methylthiazol-5-yl)pyrazin-2-yl)-N-((1s,4s)-4-hydroxycyclohexyl)-4-methylbenzenesulfonamide] |  | 
2800 | > 10000 | > 10000 | > 10000 |  |  | > 10000 | 2500 | 850 | 28 |  | Cc1cn(-c2nc(-c3cc(S(=O)(=O)NCC(C)(C)O)ccc3C)cnc2N)c(C)n1 [Example 50, 3-(5-Amino-6-(2,4-dimethyl-1H-imidazol-1-yl)pyrazin-2-yl)-N-(2-hydroxy-2-methylpropyl)-4-methylbenzenesulfonamide] |  | 

Reference: patent publication US10004732B2 (Novartis AG, priority 2014, dated 2018)
